From patent publication US12304890B2, “R-type pyridyloxycarboxylic acid, salt and ester derivative thereof, and preparation method therefor, and herbicidal composition and application thereof” (Qingdao Kingagroot Chemical Compound Co., Ltd., priority 2018, dated 2025)

Key:
Assay type in all cases: in vivo
Echinochloa crusgalli = assay: Post-emergence test experiment, Echinochloa crusgalli; conditions: 1000 g a.i./ha, 3 weeks in greenhouse, fresh weight inhibition
How it was run: (§1)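 Seeds sown under 0.5-2 cm soil; sprayed post-emergence at 2-3 leaves with acetone/tween-80 solution plus 1.5 L/ha methyl oleate EC; greenhouse 3 wk; % fresh weight inhibition.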

[1] = test system: Monocotyledonous and dicotyledonous weed seeds and main crop seeds; assay: Post-emergence test experiment, other weeds and crops (Table 4, 1000 g a.i./ha); conditions: 3 weeks in greenhouse, fresh weight inhibition
How it was run: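 Growth inhibition is scored on fresh weight. Spray solutions were made in acetone with tween-80, diluted in water, plus 1.5 L/ha methyl oleate emulsible concentrate. Plants from greenhouse-grown weed and crop seeds were treated post-emergence at 2-3 leaves, 2 weeks after sowing.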

Digitaria sanguinalis = assay: Post-emergence test experiment, Digitaria sanguinalis; conditions: 1000 g a.i./ha, 3 weeks in greenhouse, fresh weight inhibition
How it was run: as §1

Row | Compound | Activity level (growth inhibition rate), Echinochloa crusgalli (Echinochloa crusgalli) | Activity level (growth inhibition rate), Abutilon theophrasti Medic. [1] | Activity level (growth inhibition rate), Galium aparine [1] | Activity level (growth inhibition rate), Monochoria Vaginalis [1] | Activity level (growth inhibition rate), Digitaria sanguinalis (Digitaria sanguinalis)
1 | CC(Oc1nc(F)c(Cl)c(N)c1Cl)C(=O)OCc1ccccc1Cl (centres unmarked) [Compound 2-314] | 5 (Level 5: the growth inhibition rate is greater than 85%) | 5 (Level 5: the growth inhibition rate is greater than 85%) | 5 (Level 5: the growth inhibition rate is greater than 85%) | 5 (Level 5: the growth inhibition rate is greater than 85%) | 5 (Level 5: the growth inhibition rate is greater than 85%)
2 | CC(Oc1nc(F)c(Cl)c(N)c1Cl)C(=O)SCc1ccccc1Cl (centres unmarked) [Compound 2-315] | 5 (Level 5: the growth inhibition rate is greater than 85%) | 5 (Level 5: the growth inhibition rate is greater than 85%) | 5 (Level 5: the growth inhibition rate is greater than 85%) | 5 (Level 5: the growth inhibition rate is greater than 85%) | 5 (Level 5: the growth inhibition rate is greater than 85%)
3 | CC(Oc1nc(F)c(Cl)c(N)c1Cl)C(=O)OCc1cccc(Cl)c1 (centres unmarked) [Compound 2-316] | 5 (Level 5: the growth inhibition rate is greater than 85%) | 5 (Level 5: the growth inhibition rate is greater than 85%) | 5 (Level 5: the growth inhibition rate is greater than 85%) | 5 (Level 5: the growth inhibition rate is greater than 85%) | 5 (Level 5: the growth inhibition rate is greater than 85%)
4 | CC(Oc1nc(F)c(Cl)c(N)c1Cl)C(=O)SCc1cccc(Cl)c1 (centres unmarked) [Compound 2-317] | 5 (Level 5: the growth inhibition rate is greater than 85%) | 5 (Level 5: the growth inhibition rate is greater than 85%) | 5 (Level 5: the growth inhibition rate is greater than 85%) | 5 (Level 5: the growth inhibition rate is greater than 85%) | 5 (Level 5: the growth inhibition rate is greater than 85%)
5 | CC(Oc1nc(F)c(Cl)c(N)c1Cl)C(=O)OCc1ccc(Cl)cc1 (centres unmarked) [Compound 2-318] | 5 (Level 5: the growth inhibition rate is greater than 85%) | 5 (Level 5: the growth inhibition rate is greater than 85%) | 5 (Level 5: the growth inhibition rate is greater than 85%) | 5 (Level 5: the growth inhibition rate is greater than 85%) | 5 (Level 5: the growth inhibition rate is greater than 85%)
6 | CC(Oc1nc(F)c(Cl)c(N)c1Cl)C(=O)OCc1ccccc1Br (centres unmarked) [Compound 2-320] | 5 (Level 5: the growth inhibition rate is greater than 85%) | 5 (Level 5: the growth inhibition rate is greater than 85%) | 5 (Level 5: the growth inhibition rate is greater than 85%) | 5 (Level 5: the growth inhibition rate is greater than 85%) | 5 (Level 5: the growth inhibition rate is greater than 85%)
7 | CC(Oc1nc(F)c(Cl)c(N)c1Cl)C(=O)SCc1ccccc1Br (centres unmarked) [Compound 2-321] | 5 (Level 5: the growth inhibition rate is greater than 85%) | 5 (Level 5: the growth inhibition rate is greater than 85%) | 5 (Level 5: the growth inhibition rate is greater than 85%) | 5 (Level 5: the growth inhibition rate is greater than 85%) | 5 (Level 5: the growth inhibition rate is greater than 85%)
8 | CC(Oc1nc(F)c(Cl)c(N)c1Cl)C(=O)OCc1cccc(Br)c1 (centres unmarked) [Compound 2-322] | 5 (Level 5: the growth inhibition rate is greater than 85%) | 5 (Level 5: the growth inhibition rate is greater than 85%) | 5 (Level 5: the growth inhibition rate is greater than 85%) | 5 (Level 5: the growth inhibition rate is greater than 85%) | 5 (Level 5: the growth inhibition rate is greater than 85%)
9 | CC(Oc1nc(F)c(Cl)c(N)c1Cl)C(=O)SCc1cccc(Br)c1 (centres unmarked) [Compound 2-323] | 5 (Level 5: the growth inhibition rate is greater than 85%) | 5 (Level 5: the growth inhibition rate is greater than 85%) | 5 (Level 5: the growth inhibition rate is greater than 85%) | 5 (Level 5: the growth inhibition rate is greater than 85%) | 5 (Level 5: the growth inhibition rate is greater than 85%)
10 | CC(Oc1nc(F)c(Cl)c(N)c1Cl)C(=O)OCc1ccc(Br)cc1 (centres unmarked) [Compound 2-324] | 5 (Level 5: the growth inhibition rate is greater than 85%) | 5 (Level 5: the growth inhibition rate is greater than 85%) | 5 (Level 5: the growth inhibition rate is greater than 85%) | 5 (Level 5: the growth inhibition rate is greater than 85%) | 5 (Level 5: the growth inhibition rate is greater than 85%)
11 | CC(Oc1nc(F)c(Cl)c(N)c1Cl)C(=O)SCc1ccc(Br)cc1 (centres unmarked) [Compound 2-325] | 5 (Level 5: the growth inhibition rate is greater than 85%) | 5 (Level 5: the growth inhibition rate is greater than 85%) | 5 (Level 5: the growth inhibition rate is greater than 85%) | 5 (Level 5: the growth inhibition rate is greater than 85%) | 5 (Level 5: the growth inhibition rate is greater than 85%)
12 | CC(Oc1nc(F)c(Cl)c(N)c1Cl)C(=O)OCc1ccccc1C(F)(F)F (centres unmarked) [Compound 2-327] | 5 (Level 5: the growth inhibition rate is greater than 85%) | 5 (Level 5: the growth inhibition rate is greater than 85%) | 5 (Level 5: the growth inhibition rate is greater than 85%) | 5 (Level 5: the growth inhibition rate is greater than 85%) | 5 (Level 5: the growth inhibition rate is greater than 85%)
13 | CC(Oc1nc(F)c(Cl)c(N)c1Cl)C(=O)SCc1ccccc1C(F)(F)F (centres unmarked) [Compound 2-328] | 5 (Level 5: the growth inhibition rate is greater than 85%) | 5 (Level 5: the growth inhibition rate is greater than 85%) | 5 (Level 5: the growth inhibition rate is greater than 85%) | 5 (Level 5: the growth inhibition rate is greater than 85%) | 5 (Level 5: the growth inhibition rate is greater than 85%)
14 | CC(Oc1nc(F)c(Cl)c(N)c1Cl)C(=O)OCc1cccc(C(F)(F)F)c1 (centres unmarked) [Compound 2-329] | 5 (Level 5: the growth inhibition rate is greater than 85%) | 5 (Level 5: the growth inhibition rate is greater than 85%) | 5 (Level 5: the growth inhibition rate is greater than 85%) | 5 (Level 5: the growth inhibition rate is greater than 85%) | 5 (Level 5: the growth inhibition rate is greater than 85%)
15 | CC(Oc1nc(F)c(Cl)c(N)c1Cl)C(=O)SCc1cccc(C(F)(F)F)c1 (centres unmarked) [Compound 2-330] | 5 (Level 5: the growth inhibition rate is greater than 85%) | 5 (Level 5: the growth inhibition rate is greater than 85%) | 5 (Level 5: the growth inhibition rate is greater than 85%) | 5 (Level 5: the growth inhibition rate is greater than 85%) | 5 (Level 5: the growth inhibition rate is greater than 85%)
16 | CC(Oc1nc(F)c(Cl)c(N)c1Cl)C(=O)OCc1ccc(C(F)(F)F)cc1 (centres unmarked) [Compound 2-331] | 5 (Level 5: the growth inhibition rate is greater than 85%) | 5 (Level 5: the growth inhibition rate is greater than 85%) | 5 (Level 5: the growth inhibition rate is greater than 85%) | 5 (Level 5: the growth inhibition rate is greater than 85%) | 5 (Level 5: the growth inhibition rate is greater than 85%)
